Like-named read-outs stand apart in the source and are kept apart here.

For test [1], the target named is T1, Ca^2+-activated Cl^- channel (CaCC) (Xenopus laevis, UniProt B5SVV6). The note with it: endogenous CaCCs in Xenopus laevis oocytes, TEVC; read-out: IC50 * (IC50 previously studied); cited from earlier work.
In test [2] the target is T1, Ca^2+-activated Cl^- channel (CaCC). In kind it is cell-based. The note with it: block of Cl^- current induced by 5 mM external Ca^2+, ionomycin then thapsigargin treated oocytes, chelerythrine in intracellular solution, holding potential -60 mV.
Procedure: To exclude the effect of PKC in CaCC current, PKC inhibitor chelerythrine was added to the intracellular solution. […] Additional variability in peak amplitude can come from the Ca^2+ induced Ca^2+ release from intracellular stores. To eliminate the contribution of Ca^2+ release from intracellular stores, Ca^2+ ATPase inhibitor, thapsigargin was treated on ionomycin pretreated oocytes. […] Therefore, a reliable protocol for drug screening of CaCCs in Xenopus oocytes was established with treatment of 1 μM thapsigargin for 90 min to ionomycin treated oocytes followed by recording with microelectrodes filled with intracellular solution containing 1 μM chelerythrine.
Using the optimized drug screening protocol, the effect of known blockers of CaCC was tested.
The animals were anaesthetized by cooling with ice [30]. Ovarian follicles were surgically removed, treated with 2 mg/ml collagenase type IA at room temperature for 90 min in Ca^2+ free Barth's solution containing 89 mM NaCl, 1.0 mM KCl, 2.4 mM NaHCO3, 0.82 mM MgSO4 and 10 mM HEPES (pH 7.4). […]

T1 sequence (B5SVV6 entry or part of it): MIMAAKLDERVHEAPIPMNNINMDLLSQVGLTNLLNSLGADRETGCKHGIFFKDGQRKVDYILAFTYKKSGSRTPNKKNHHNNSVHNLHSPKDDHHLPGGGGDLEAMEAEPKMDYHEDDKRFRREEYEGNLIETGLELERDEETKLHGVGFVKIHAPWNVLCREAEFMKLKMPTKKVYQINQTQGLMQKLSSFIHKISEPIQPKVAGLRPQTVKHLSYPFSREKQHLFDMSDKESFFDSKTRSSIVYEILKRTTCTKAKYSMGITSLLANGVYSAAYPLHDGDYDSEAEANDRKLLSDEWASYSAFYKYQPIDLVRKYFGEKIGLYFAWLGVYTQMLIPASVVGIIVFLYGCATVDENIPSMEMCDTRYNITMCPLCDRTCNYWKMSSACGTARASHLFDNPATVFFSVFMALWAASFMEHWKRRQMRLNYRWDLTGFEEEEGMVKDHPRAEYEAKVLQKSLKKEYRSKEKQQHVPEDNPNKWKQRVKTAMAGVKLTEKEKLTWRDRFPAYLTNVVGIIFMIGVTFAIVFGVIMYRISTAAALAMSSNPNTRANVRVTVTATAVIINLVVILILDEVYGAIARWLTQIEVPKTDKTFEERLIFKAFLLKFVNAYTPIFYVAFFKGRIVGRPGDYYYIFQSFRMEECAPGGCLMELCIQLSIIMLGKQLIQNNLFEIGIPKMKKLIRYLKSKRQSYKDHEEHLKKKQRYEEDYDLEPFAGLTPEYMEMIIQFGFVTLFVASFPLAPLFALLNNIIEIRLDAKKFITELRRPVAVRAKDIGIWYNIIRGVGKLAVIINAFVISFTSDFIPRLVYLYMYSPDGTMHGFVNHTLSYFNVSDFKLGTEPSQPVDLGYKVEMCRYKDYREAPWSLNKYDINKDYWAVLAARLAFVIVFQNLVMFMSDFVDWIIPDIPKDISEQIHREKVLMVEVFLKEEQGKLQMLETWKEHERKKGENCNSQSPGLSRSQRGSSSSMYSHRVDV

As for `O=C(O)c1ccccc1Nc1ccccc1` [DPC, diphenylamine-2-carboxylate], the IC50 (as a rule, the concentration needed to halve the response being measured) in test [1] is 111 µM.

As for `O=C(O)c1ccccc1Nc1ccccc1[N+](=O)[O-]` [N-(2-Nitrophenyl)-anthranilic acid], in test [2], the IC50 result is reported as “low potency”.

With `O=C(O)c1ccccc1Nc1ccc(C(F)(F)F)cc1` [N-(4-trifluoromethylphenyl)anthranilic acid], in test [2] (read-out: IC50), the IC50 amounted to 6 µM.
